In patent US12428397B2, “Factor XI activation inhibitors” (Merck Sharp & Dohme LLC, priority 2020, dated 2025):

Each compound was assayed against T1, Human coagulation factor (F)XI (Homo sapiens, UniProt P03951) (assay: Inhibition of FXIIa mediated activation of FXI (activation of human Factor XI to XIa by human Factor α-XIIa)). Settings: human FXI pre-incubated with compound 30 min at 22° C., activation by human FXIIa 60 min, z-GPR-AFC substrate fluorescence read-out, 4 parameter logistic fit; read-out: Inhibition of FXIIa meditated activation of FXI.
T1 construct: purchased Haematologic Technologies Inc. (FXI); Enzyme Research Laboratories (FXIIa) HCXI-150 (FXI); HFXIIa (FXIIa)
T1 sequence (P03951 19-625): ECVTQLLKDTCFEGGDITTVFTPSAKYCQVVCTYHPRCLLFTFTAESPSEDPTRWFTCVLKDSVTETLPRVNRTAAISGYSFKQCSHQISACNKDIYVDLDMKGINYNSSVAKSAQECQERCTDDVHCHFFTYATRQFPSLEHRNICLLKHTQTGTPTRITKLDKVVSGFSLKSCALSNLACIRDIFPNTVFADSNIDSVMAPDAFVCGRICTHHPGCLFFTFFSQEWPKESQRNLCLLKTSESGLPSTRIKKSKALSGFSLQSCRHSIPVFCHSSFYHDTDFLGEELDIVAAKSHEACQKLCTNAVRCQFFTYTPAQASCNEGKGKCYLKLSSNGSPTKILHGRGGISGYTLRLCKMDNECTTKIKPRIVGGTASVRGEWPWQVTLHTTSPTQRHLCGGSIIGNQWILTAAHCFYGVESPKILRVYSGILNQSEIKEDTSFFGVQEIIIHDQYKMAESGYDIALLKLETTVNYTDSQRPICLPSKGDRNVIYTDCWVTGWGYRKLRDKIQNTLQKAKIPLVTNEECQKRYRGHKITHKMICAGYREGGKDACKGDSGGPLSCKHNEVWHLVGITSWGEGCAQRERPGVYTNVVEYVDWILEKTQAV
Format: biochemical
Method: Inhibition of FXIIa Mediated Activation of FXI
Activation of Human Factor XI to XIa by Human Factor α-XIIa
The assay was performed in 50 mM HEPES, 150 mM NaCl, 5 mM CaCl2, 0.1% PEG-8000, pH 7.4 buffer in black, flat-bottom, polystyrene microplates (Corning, Cat #3573). Serial dilutions (10-point, 3.333-fold) of the test compounds delivered as 10 mM DMSO stocks were prepared in the Labcyte Echo-qualified PP 384 well microplates (Labcyte, Cat #P-05525). Human coagulation factor (F)XI (Haematologic Technologies Inc., Cat #HCXI-150, concentration 46 nM, 19.5 uL) was pre-incubated with 0.5 uL of the test compounds for 30 min at 22° C. The activation was initiated by addition of 10 uL of human coagulation factor (F)XIIa (Enzyme Research Laboratories, Cat #HFXIIa, concentration 30 nM) and the reaction proceeded for 60 min at 22° C., after which it was quenched by addition of a selective inhibitor of FXIIa (Compound 54 in WO2018093695) concentration 600 uM in DMSO, 1 uL. 10 min after the quench, 29 uL of z-GPR-AFC substrate (Sigma, Cat #C0980-10MG, concentration 200 uM) was added into each well and the detection reaction proceeded for 60 min at 22° C. Fluorescence at 405/510 nm was measured in end-point mode using an Envision plate-reader (Perkin Elmer). IDBS Activity Base XE (ABase) analysis using 4 parameter logistic fit was performed to determine Minimum, Maximum, EC50, and Slope Factor for each compound.

Compound	EC50 [nM]
N#CC1(c2ccccc2)CCN(C(=O)c2cc(C(=O)N3CCCCC3)c3cc(OCCCc4cccnc4)ncc3c2)CC1 [Example 4, 4-phenyl-1-(5-(piperidine-1-carbonyl)-3-(3-(pyridin-3-yl)propoxy)isoquinoline-7-carbonyl)piperidine-4-carbonitrile]	8.5
N#CC1(c2ccccc2)CCN(C(=O)c2cc(C(=O)N3CCCCC3)c3cc(OCc4ncc(C(F)(F)F)cc4Cl)ncc3c2)CC1 [Example 2, 1-(3-((3-chloro-5-(trifluoromethyl)pyridin-2-yl)methoxy)-5-(piperidine-1-carbonyl)isoquinoline-7-carbonyl)-4-phenylpiperidine-4-carbonitrile]	26.8
O=C(c1cc(C(=O)N2CCCCC2)c2cc(OCc3ncc(Cl)cc3Cl)ncc2c1)N1CCC(n2cccn2)CC1 [Example 14, (4-(1H-pyrazol-1-yl)piperidin-1-yl)(3-((3,5-dichloropyridin-2-yl)methoxy)-5-(piperidine-1-carbonyl)isoquinolin-7-yl)methanone]	8.8
N#CC1(c2ccccc2)CCN(C(=O)c2cc(C(=O)N3CCCCC3)c3cc(OCc4ncc(Cl)cc4Cl)ncc3c2)CC1 [Example 6, 1-(3-((3,5-dichloropyridin-2-yl)methoxy)-5-(piperidine-1-carbonyl)isoquinoline-7-carbonyl)-4-phenylpiperidine-4-carbonitrile]	19.4
O=C(c1cc(C(=O)N2CCCCC2)c2cc(OCc3ncc(C(F)(F)F)cc3Cl)ncc2c1)N1CCC(n2ccnn2)CC1 [Example 3, (4-(1H-1,2,3-triazol-1-yl)piperidin-1-yl)(3-((3-chloro-5-(trifluoromethyl)pyridin-2-yl)methoxy)-5-(piperidine-1-carbonyl)isoquinolin-7-yl)methanone]	32.7
O=C(c1cc(C(=O)N2CCCCC2)c2cc(OCc3ncc(C(F)(F)F)cc3Cl)ncc2c1)N1CCC(n2cccn2)CC1 [Example 8, (4-(1H-pyrazol-1-yl)piperidin-1-yl)(3-((3-chloro-5-(trifluoromethyl)pyridin-2-yl)methoxy)-5-(piperidine-1-carbonyl)isoquinolin-7-yl)methanone]	13.4
N#CC1(c2ccccn2)CCN(C(=O)c2cc(C(=O)N3CCCCC3)c3cc(OCc4ncc(Cl)cc4Cl)ncc3c2)CC1 [Example 11, 1-(3-((3,5-dichloropyridin-2-yl)methoxy)-5-(piperidine-1-carbonyl)isoquinoline-7-carbonyl)-4-(pyridin-2-yl)piperidine-4-carbonitrile]	4.3
O=C(c1cc(C(=O)N2CCCCC2)c2cc(OCc3ccc(C(F)(F)F)nc3)ncc2c1)N1CCC(n2cccn2)CC1 [Example 10, (4-(1H-pyrazol-1-yl)piperidin-1-yl)(5-(piperidine-1-carbonyl)-3-((6-(trifluoromethyl)pyridin-3-yl)methoxy)isoquinolin-7-yl)methanone]	33.2

More lines, now with the values ahead:

EC50 [nM]	Compound
24.3	N#CC1(c2ccccn2)CCN(C(=O)c2cc(C(=O)N3CCCCC3)c3cc(OCc4ncc(C(F)(F)F)cc4Cl)ncc3c2)CC1 [Example 12, 1-(3-((3-chloro-5-(trifluoromethyl)pyridin-2-yl)methoxy)-5-(piperidine-1-carbonyl)isoquinoline-7-carbonyl)-4-(pyridin-2-yl)piperidine-4-carbonitrile]
41	O=C(c1cc(C(=O)N2CCCCC2)c2cc(OCc3ncc(Cl)cc3Cl)ncc2c1)N1CCC(n2ccnn2)CC1 [Example 5, (4-(1H-1,2,3-triazol-1-yl)piperidin-1-yl)(3-((3,5-dichloropyridin-2-yl)methoxy)-5-(piperidine-1-carbonyl)isoquinolin-7-yl)methanone]
23.6	N#Cc1cccc(COc2cc3c(C(=O)N4CCCCC4)cc(C(=O)N4CCC(C#N)(c5ccccc5)CC4)cc3cn2)c1 [Example 7, 1-(3-((3-cyanobenzyl)oxy)-5-(piperidine-1-carbonyl)isoquinoline-7-carbonyl)-4-phenylpiperidine-4-carbonitrile]
49.5	O=C(c1cc(C(=O)N2CCCCC2)c2cc(OCc3ccc(Cl)cc3Cl)ncc2c1)N1CCC(n2cccn2)CC1 [Example 13, (4-(1H-pyrazol-1-yl)piperidin-1-yl)(3-((2,4-dichlorobenzyl)oxy)-5-(piperidine-1-carbonyl)isoquinolin-7-yl)methanone]
37.9	N#CC1(c2ccccc2)CCN(C(=O)c2cc(C(=O)N3CCCCC3)c3cc(OCc4nc5ccccc5s4)ncc3c2)CC1 [Example 1, 1-(3-(benzo[d]thiazol-2-ylmethoxy)-5-(piperidine-1-carbonyl)isoquinoline-7-carbonyl)-4-phenylpiperidine-4-carbonitrile]
19.9	O=C(c1cc(C(=O)N2CCCCC2)c2cc(OCc3nc4ccccc4s3)ncc2c1)N1CCC(n2cccn2)CC1 [Example 15, (4-(1H-pyrazol-1-yl)piperidin-1-yl)(3-(benzo[d]thiazol-2-ylmethoxy)-5-(piperidine-1-carbonyl)isoquinolin-7-yl)methanone]
45.7	N#Cc1ccc(COc2cc3c(C(=O)N4CCCCC4)cc(C(=O)N4CCC(n5cccn5)CC4)cc3cn2)cn1 [Example 9, 5-(((7-(4-(1H-pyrazol-1-yl)piperidine-l-carbonyl)-5-(piperidine-1-carbonyl)isoquinolin-3-yl)oxy)methyl)picolinonitrile]
